Source: patent US11802120B2, “Fused cyclic urea derivatives as CRHR2 antagonist” (RaQualia Pharma Inc., priority 2018, dated 2023)

What was measured:
human CRHR1-beta = target: T1, human CRHR1-beta (Homo sapiens, UniProt P34998); experiment: cAMP functional assay for human CRHR1 (LANCE Ultra cAMP, TR-FRET); type: cell-based; details: CHO-K1 cells expressing human CRHR1-beta, agonist CRF at EC80, cAMP; read-out: IC50 against CRHR1
T1 sequence (P34998 24-444 isoform P34998-1 limits assumed): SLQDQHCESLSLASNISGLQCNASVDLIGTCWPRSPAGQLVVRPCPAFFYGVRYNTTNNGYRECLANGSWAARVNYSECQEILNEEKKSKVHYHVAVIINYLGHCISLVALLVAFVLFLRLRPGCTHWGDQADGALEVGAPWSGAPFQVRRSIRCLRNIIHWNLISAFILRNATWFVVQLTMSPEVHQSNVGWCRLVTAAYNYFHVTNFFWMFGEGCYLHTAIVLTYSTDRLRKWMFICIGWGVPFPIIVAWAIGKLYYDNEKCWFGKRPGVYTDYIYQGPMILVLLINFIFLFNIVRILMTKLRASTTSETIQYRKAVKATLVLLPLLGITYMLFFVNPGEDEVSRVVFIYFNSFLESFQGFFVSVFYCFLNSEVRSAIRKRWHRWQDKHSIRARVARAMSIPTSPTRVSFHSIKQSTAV
Procedure: cAMP functional assay for human CRHR1 and CRHR2
The ability of the compounds of this invention to inhibit either CRHR2 or CRHR1 is assessed by 3′,5′-cyclic adenosine monophosphate (cAMP) production in cells using the LANCE Ultra cAMP assay kit (ParkinElmer), which are designed based on the homogeneous time-resolved fluorescence resonance energy transfer (TR-FRET) immunoassay.
CHO-K1 (Chinese hamster ovary) cells stably expressing either human CRHR2-alpha (DiscoveRX, Cat. 95-0048C2) or human CRHR1-beta (DiscoveRX, Cat. 95-0047C2) are grown in HAM's F12 media supplemented with 10% fetal bovine serum (FBS), 100 units/mL penicillin, 100 microg/mL hygromycin and 0.5 microg/mL geneticin at 37° C. in 5% CO2 humidified incubator to 80% confluence. After 7 hours starvation treatment in culture media containing 0.1% FBS, the cells are washed with Hanks balanced salt solution (HBSS) and cryopreserved.
For cAMP assay, frozen cells are thawed and washed with HBSS, followed by resuspended in assay buffer (HBSS containing 0.1% bovine serum albumin, 0.5 mM isobutylmethylxanthine and 5 mM Hepes, pH 7.4) at the appropriate concentration for the assay. The cell suspensions are plated on 384-well microplates (Greiner Bio-One) at a density of 4,000 cells per well. After preincubating the cells with various concentrations of the compounds for 30 min at 25° C., an assay buffer containing EC80 concentration of each agonist is added and the cells are incubated for 30 min at 25° C. Human urocortin2 (Peptide Institute) and CRF (Peptide Institute) are used as agonists for CRHR2 and CRHR1, respectively. For the termination of assay, europium-labeled cAMP tracer and ULight (registered trademark) dye labeled cAMP antibodies, both prepared with Lance-Ultra cAMP detection reagent (Perkin Elmer) are added in the plate and incubate for 60 min at 25° C. After incubation, TR-FRET signal is detected by EnVision plate reader (PerkinElmer). The IC50 values for compounds are calculated from dose-response curves by fitting the percent inhibition using XLfit (ID Business Solutions).

human CRHR2-alpha = target: T2, human CRHR2-alpha (Homo sapiens, UniProt Q13324); experiment: cAMP functional assay for human CRHR2 (LANCE Ultra cAMP, TR-FRET); type: cell-based; details: CHO-K1 cells expressing human CRHR2-alpha, agonist human urocortin2 at EC80, cAMP; read-out: IC50 against CRHR2
T2 sequence (Q13324 1-411): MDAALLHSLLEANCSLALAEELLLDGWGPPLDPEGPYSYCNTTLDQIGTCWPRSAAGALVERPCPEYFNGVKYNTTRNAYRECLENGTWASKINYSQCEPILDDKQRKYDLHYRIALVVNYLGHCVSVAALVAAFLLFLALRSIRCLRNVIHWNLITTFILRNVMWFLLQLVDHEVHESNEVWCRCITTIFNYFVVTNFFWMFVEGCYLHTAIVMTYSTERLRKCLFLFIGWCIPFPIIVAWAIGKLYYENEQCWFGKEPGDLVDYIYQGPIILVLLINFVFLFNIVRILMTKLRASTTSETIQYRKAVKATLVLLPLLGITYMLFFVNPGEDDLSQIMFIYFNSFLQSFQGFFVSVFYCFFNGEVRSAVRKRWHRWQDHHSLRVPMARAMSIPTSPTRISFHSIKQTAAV
Procedure, shortened: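 IC50 values derive from percent inhibition of EC80 agonist-stimulated cAMP in CHO-K1 transfectants, with 0.5 mM IBMX present; the CRHR2 line was stimulated by human urocortin2 and the CRHR1 line by CRF.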

Row | SMILES | IC50 (human CRHR1-beta) [µM] | IC50 (human CRHR2-alpha) [µM]
1 | Cc1ncc(Cl)cc1C(=O)N[C@H]1CC[C@H](Cn2c(=O)n(-c3ccc(OCCN(C)C)nc3)c3c(C)cccc32)CC1 [Example 59, 5-chloro-N-((1r,4r)-4-((3-(6-(2-(dimethylamino)ethoxy)pyridin-3-yl)-4-methyl-2-oxo-2,3-dihydro-1H-benzo[d]imidazol-1-yl)methyl)cyclohexyl)-2-methylnicotinamide] | < 1 | –
2 | Cc1ncc(Cl)cc1C(=O)N[C@H]1CC[C@H](Cn2c(=O)n(-c3ccc(N4CC[C@@H](O)C4)nc3)c3ccccc32)CC1 [Example 81, 5-chloro-N-((1R,4r)-4-((3-(6-((R)-3-hydroxypyrrolidin-1-yl)pyridin-3-yl)-2-oxo-2,3-dihydro-1H-benzo[d]imidazol-1-yl)methyl)cyclohexyl)-2-methylnicotinamide] | < 1 | –
3 | Cc1ncc(Cl)cc1C(=O)N[C@H]1CC[C@H](Cn2c(=O)n(-c3ccc(N4CCN(CCO)CC4)nc3)c3ccccc32)CC1 [Example 65, 5-chloro-N-((1r,4r)-4-((3-(6-(4-(2-hydroxyethyl)piperazin-1-yl)pyridin-3-yl)-2-oxo-2,3-dihydro-1H-benzo[d]imidazol-1-yl)methyl)cyclohexyl)-2-methylnicotinamide] | < 1 | –
4 | Cc1ncc(Cl)cc1C(=O)N[C@H]1CC[C@H](Cn2c(=O)n(-c3ccc(OCCN(C)C)cc3)c3ccccc32)CC1 [Example 73, 5-chloro-N-((1r,4r)-4-((3-(4-(2-(dimethylamino)ethoxy)phenyl)-2-oxo-2,3-dihydro-1H-benzo[d]imidazol-1-yl)methyl)cyclo-hexyl)-2-methylnicotinamide] | < 1 | –
5 | Cc1ncc(Cl)cc1C(=O)N[C@H]1CC[C@H](Cn2c(=O)n(-c3ccc(OCCO)nn3)c3ccccc32)CC1 [Example 69, 5-chloro-N-((1r,4r)-4-((3-(6-(2-hydroxyethoxy)pyridazin-3-yl)-2-oxo-2,3-dihydro-1H-benzo[d]imidazol-1-yl)methyl)cyclohexyl)-2-methylnicotinamide] | < 1 | –
6 | Cc1ccc(C(F)(F)F)c(C(=O)N[C@H]2CC[C@H](Cn3c(=O)n(-c4ccc(C)nc4)c4ccccc43)CC2)c1 [Example 268, 5-methyl-N-((1r,4r)-4-((3-(6-methylpyridin-3-yl)-2-oxo-2,3-dihydro-1H-benzo[d]imidazol-1-yl)methyl)cyclohexyl)-2-(trifluoromethyl)benzamide] | – | < 0.3
7 | Cc1ncc(Cl)cc1C(=O)N[C@H]1CC[C@H](Cn2c(=O)n(-c3ccc4c(c3)c(C)nn4C)c3ccccc32)CC1 [Example 213, 5-chloro-N-((1r,4r)-4-((3-(1,3-dimethyl-1H-indazol-5-yl)-2-oxo-2,3-dihydro-1H-benzo[d]imidazol-1-yl)methyl)cyclohexyl)-2-methylnicotinamide] | – | < 0.3
8 | O=C(NCCF)c1ccc(-n2c(=O)n(C[C@H]3CC[C@H](NC(=O)c4cc(Cl)cnc4C(F)F)CC3)c3ccccc32)cn1 [Example 549, 5-(3-(((1r,4r)-4-(5-chloro-2-(difluoromethyl)nicotina-mido)cyclohexyl)methyl)-2-oxo-2,3-dihydro-1H-benzo[d]imidazol-1-yl)-N-(2-fluoroethyl)picolinamide] | – | < 0.3
9 | Cc1ccc(-n2c(=O)n(C[C@H]3CC[C@H](NC(=O)c4cc(Cl)ccc4Cl)CC3)c3ccccc32)cn1 [Example 269, 2,5-dichloro-N-((1r,4r)-4-((3-(6-methylpyridin-3-yl)-2-oxo-2,3-dihydro-1H-benzo[d]imidazol-1-yl)methyl)cyclohexyl)benzamide] | – | < 0.3
10 | Cc1ncc(Cl)cc1C(=O)N[C@H]1CC[C@H](Cn2c(=O)n(-c3ccc4nn(C)c(C)c4c3)c3ccccc32)CC1 [Example 185, 5-chloro-N-((1r,4r)-4-((3-(2,3-dimethyl-2H-indazol-5-yl)-2-oxo-2,3-dihydro-1H-benzo[d]imidazol-1-yl)methyl)cyclohexyl)-2-methylnicotinamide] | – | < 0.3

Results, then the compound that gave them:

Row | IC50 (human CRHR1-beta) [µM] | IC50 (human CRHR2-alpha) [µM] | SMILES
11 | < 1 | – | Cc1ncc(Cl)cc1C(=O)N[C@H]1CC[C@H](Cn2c(=O)n(-c3ccc(N4CC[C@H](N(C)C)C4)nc3)c3ccccc32)CC1 [Example 61, 5-chloro-N-((1S,4r)-4-((3-(6-((S)-3-(dimethylamino)pyrrolidin-1-yl)pyridin-3-yl)-2-oxo-2,3-dihydro-1H-benzo[d]imidazol-1-yl)methyl)cyclohexyl)-2-methylnicotinamide]
12 | < 1 | – | COc1ncc(-n2c(=O)n(C[C@H]3CC[C@H](NC(=O)c4cc(Cl)cnc4C)CC3)c3ccccc32)cn1 [Example 43, 5-chloro-N-((1r,4r)-4-((3-(2-methoxypyrimidin-5-yl)-2-oxo-2,3-dihydro-1H-benzo[d]imidazol-1-yl)methyl)cyclohexyl)-2-methylnicotinamide]
13 | < 1 | – | Cc1ncc(Cl)cc1C(=O)N[C@H]1CC[C@H](Cn2c(=O)n(-c3ccc(N4CCN(C)CC4)nn3)c3ccccc32)CC1 [Example 68, 5-chloro-2-methyl-N-((1r,4r)-4-((3-(6-(4-methylpiperazin-1-yl)pyridazin-3-yl)-2-oxo-2,3-dihydro-1H-benzo[d]imidazol-1-yl)methyl)cyclohexyl)nicotinamide]
14 | < 1 | – | Cc1ncc(Cl)cc1C(=O)N[C@H]1CC[C@H](Cn2c(=O)n(-c3ccc(OC[C@H]4CNCCO4)nc3)c3ccccc32)CC1 [Example 74, 5-chloro-2-methyl-N-((1R,4r)-4-((3-(6-((R)-morpholin-2-ylmethoxy)pyridin-3-yl)-2-oxo-2,3-dihydro-1H-benzo[d]imidazol-1-yl)methyl)cyclohexyl)nicotinamide]
15 | < 1 | – | Cc1ncc(Cl)cc1C(=O)N[C@H]1CC[C@H](Cn2c(=O)n(-c3ccc(N4CC[C@H](O)C4)nc3)c3ccccc32)CC1 [Example 80, 5-chloro-N-((1S,4r)-4-((3-(6-((S)-3-hydroxypyrrolidin-1-yl)pyridin-3-yl)-2-oxo-2,3-dihydro-1H-benzo[d]imidazol-1-yl)methyl)cyclohexyl)-2-methylnicotinamide]
16 | < 1 | – | Cc1ncc(Cl)cc1C(=O)N[C@H]1CC[C@H](CN2C(=O)N(c3ccccc3)Cc3ccccc32)CC1 [Example 136, 5-chloro-2-methyl-N-((1r,4r)-4-((2-oxo-3-phenyl-3,4-dihydro-quinazolin-1(2H)-yl)methyl)cyclohexyl)nicotinamide]
17 | < 1 | – | Cc1ncc(Cl)cc1C(=O)N[C@H]1CC[C@H](Cn2c(=O)n(CC3CCOCC3)c3ccccc32)CC1 [Example 3, 5-chloro-2-methyl-N-((1r,4r)-4-((2-oxo-3-((tetrahydro-2H-pyran-4-yl)methyl)-2,3-dihydro-1H-benzo[d]imidazol-1-yl)methyl)cyclohexyl)nicotinamide]
18 | < 1 | – | Cc1ccc(-n2c(=O)n(C[C@H]3CC[C@H](NC(=O)c4cc(Cl)cnc4C)CC3)c3ccccc32)cn1 [Example 31, 5-chloro-2-methyl-N-((1r,4r)-4-((3-(6-methylpyridin-3-yl)-2-oxo-2,3-dihydro-1H-benzo[d]imidazol-1-yl)methyl)cyclohexyl)nicotinamide]
19 | < 1 | – | Cc1ncc(Cl)cc1C(=O)N[C@H]1CC[C@H](Cn2c(=O)n(-c3ccc(CO)cc3)c3ccccc32)CC1 [Example 21, 5-chloro-N-((1r,4r)-4-((3-(4-(hydroxymethyl)phenyl)-2-oxo-2,3-dihydro-1H-benzo[d]imidazol-1-yl)methyl)cyclohexyl)-2-methylnicotinamide]
